Assay results: patent publication US11267786B2, “[3.3.1] bicyclo compounds as indoleamine 2,3-dioxygenase inhibitors” (Merck Sharp & Dohme Corp., priority 2018, dated 2022)

Biological target: T1, IDO1 (Homo sapiens, UniProt P14902)
Test: IDO1 Cellular Assay in Hela Cells Stimulated with IFNγ
Format: cell-based
Conditions: 100 ng/mL IFNγ, 300 uM L-tryptophan, about 48 hours, fluorescence readout
Protocol: IDO1 Cellular Assay in Hela Cells Stimulated with IFNγ
Hela cells were cultured in complete Hela culture medium (90% EMEM, 10% heat-inactivated fetal bovine serum) and expanded to about 1×10^9 cells. The cells were then collected and frozen down at 1×10^7 cells/vial in 1 mL frozen medium (90% complete Hela culture medium, 10% DMSO)
Compounds to be tested were serially diluted in ten 3-fold steps in DMSO starting from 10 mM DMSO stocks in Echo low volume plate(s). Compound dilutions or DMSO alone were then dispensed from the dilution plate(s) into Greiner black 384-well assay plate(s) (catalog #781086, 50 nL/well) using an Echo 550 acoustic liquid handler (Labcyte).
Frozen Hela cells were thawed and transferred into Hela assay medium (99% complete Hela culture medium, 1% Pen/Strep) with 20 mL medium/vial of cells. The cells were spun down at 250 g in a table top centrifuge for 5 min and suspended in same volume of Hela assay medium. The cells were then counted and adjusted to a density of 2×10^5 cells/ml in Hela assay medium. Sterile L-tryptophan were added to the cells with final concentration of 300 uM L-tryptophan. A small aliquot (2 mL/plate) of Hela cells were set aside and were not treated with IFNγ, to serve as the Max-E control.
Hela cells with and without IFNγ were dispensed to the respective wells of 384-well assay plates containing the compounds. The plates were incubated for about 48 hours at a 37° C., 5% CO2 incubator. Afterwards, 12 μL of 0.5 M methyl isonipecotate in dimethyl sulfoxide were added into each well and the plates were sealed and incubated at 37° C. without CO2 overnight. The plates were centrifuged for 1 min at 200×g. The resulting fluorescence was measured in a Spectramax plate reader (Molecular Devices) with a 400 nm excitation filter and a 510 nm emission filter.
The fluorescence intensity of each well was corrected for the background observed in wells with non-IFNγ-treated cells and was expressed as a fraction of the intensity observed in wells of IFNγ-treated cells and DMSO only. Potencies were calculated by linear least squares fit to the four parameter logistic IC50 equation.

T1 sequence (P14902 whole entry): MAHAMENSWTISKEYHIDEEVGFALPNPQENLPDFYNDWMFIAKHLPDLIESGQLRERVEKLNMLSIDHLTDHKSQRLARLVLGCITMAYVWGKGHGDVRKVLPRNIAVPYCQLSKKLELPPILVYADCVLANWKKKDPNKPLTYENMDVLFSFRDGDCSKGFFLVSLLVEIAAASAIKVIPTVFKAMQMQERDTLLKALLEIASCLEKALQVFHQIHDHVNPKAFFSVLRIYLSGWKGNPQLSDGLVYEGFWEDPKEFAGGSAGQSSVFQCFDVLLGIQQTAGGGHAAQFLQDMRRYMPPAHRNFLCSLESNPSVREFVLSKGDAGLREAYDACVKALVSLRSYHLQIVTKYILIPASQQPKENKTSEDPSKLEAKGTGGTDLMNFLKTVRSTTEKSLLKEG

Compared with `O=C(Nc1ccc(Cl)cc1)C1CCC2CC1CCC2c1ccnc2ccc(F)cc12` (single isomer, unassigned) [Example 3, N-(4-chlorophenyl)-6-(6-fluoroquinolin-4-yl)bicyclo[3.3.1]nonane-2-carboxamide], `O=C(NC1CCC2CC1CCC2c1ccnc2ccc(F)cc12)c1ccc(Cl)cc1` (single isomer, unassigned) [Example 6, 4-Chloro-N-(6-(6-fluoroquinolin-4-yl)bicyclo[3.3.1]nonan-2-yl)benzamide] is 13-fold higher in IC50: 127 nM for the first, 1640 nM for the second.

Going from `O=C(NC1CCC2CC1CCC2c1ccnc2ccc(F)cc12)c1ccc(Cl)cc1` (single isomer, unassigned) [Example 8, 4-Chloro-N-(6-(6-fluoroquinolin-4-yl)bicyclo[3.3.1]nonan-2-yl)benzamide] to `O=C(Nc1ccc(Cl)cc1)C1CCC2CC1CCC2c1ccnc2ccc(F)cc12` (single isomer, unassigned) [Example 1, N-(4-chlorophenyl)-6-(6-fluoroquinolin-4-yl)bicyclo[3.3.1]nonane-2-carboxamide], the IC50 falls from 2500 nM to 2 nM (1200-fold). The second is the more potent here.

Going from `O=C(NC1CCC2CC1CCC2c1ccnc2ccc(F)cc12)c1ccc(Cl)cc1` (single isomer, unassigned) [Example 5, 4-Chloro-N-(6-(6-fluoroquinolin-4-yl)bicyclo[3.3.1]nonan-2-yl)benzamide] to `O=C(Nc1ccc(Cl)cc1)C1CCC2CC1CCC2c1ccnc2ccc(F)cc12` (single isomer, unassigned) [Example 2, N-(4-chlorophenyl)-6-(6-fluoroquinolin-4-yl)bicyclo[3.3.1]nonane-2-carboxamide], the IC50 falls from 770 nM to 260 nM (3-fold). The second is the more potent here.

Compared with `O=C(NC1CCC2CC1CCC2c1ccnc2ccc(F)cc12)c1ccc(Cl)cc1` (single isomer, unassigned) [Example 7, 4-Chloro-N-(6-(6-fluoroquinolin-4-yl)bicyclo[3.3.1]nonan-2-yl)benzamide], `O=C(Nc1ccc(Cl)cc1)C1CCC2CC1CCC2c1ccnc2ccc(F)cc12` (single isomer, unassigned) [Example 4, N-(4-chlorophenyl)-6-(6-fluoroquinolin-4-yl)bicyclo[3.3.1]nonane-2-carboxamide] is 100-fold higher in IC50: 25 nM for the first, 2510 nM for the second.

Biological target: T1, IDO1
Test: IDO1 Human Whole Blood Assay
Format: cell-based
Design: Human whole blood was drawn in sodium heparin coated tubes from healthy internal donors; from tissue; host or cells: human whole blood from healthy donors, stimulated with LPS and IFNγ
Conditions: human whole blood stimulated with LPS and IFNγ 100 ng/mL, 18 h, kynurenine by LC/MS/MS
Protocol: IDO1 Human Whole Blood Assay
Compounds to be tested were serially diluted in ten 3-fold steps in DMSO starting from 10 mM. 3 μL of compound dilutions or DMSO alone were then dispensed from the dilution plate into a polypropylene 96-well assay plate containing 97 μL of RPMI medium using an Echo 555 acoustic liquid handler (Labcyte). LPS and IFNγ were prepared in RPMI medium to a 10× of final conc. (1000 ng/mL), final concentration is 100 ng/mL.
Human whole blood was drawn in sodium heparin coated tubes from healthy internal donors. Two hundred forty μL of blood was transferred to each of the wells of a v-bottom 96 well plate. Thirty μL of compound was transferred from intermediate dilution plate, and incubated for 15 min. Thirty μL from stimulants was then transferred to blood and mixed thoroughly. Plate was covered with breathable membrane and incubated at 37° C. for overnight (18 h).
On day 2 isotope labeled standard of kynurenine and tryptophan was made in water at 10× concentration and 30 μL was added to the blood at 3 μM final concentration. […] Twenty μL of supernatant was carefully transferred to a 384 well plate containing 40 μL of 0.1% formic acid in water and analyzed by LC/MS/MS.
LC/MS/MS analyses were performed using Thermo Fisher's LX4-TSQ Quantum Ultra system. […] Compounds were titrated and IC50's were calculated by 4 parameter sigmoidal curve fitting formula.

`O=C(Nc1ccc(Cl)cc1)C1CCC2CC1CCC2c1ccnc2ccc(F)cc12` (single isomer, unassigned) [Example 1, N-(4-chlorophenyl)-6-(6-fluoroquinolin-4-yl)bicyclo[3.3.1]nonane-2-carboxamide] gave an IC50 of 306 nM.
